Legend:
HeLa cells [1] = test: Optical detection of changes in plasma membrane conductance induced by streptolysin-O (fast-VSD, electric current pulses, internal control); assay type: cell-based; conditions: increasing streptolysin-O concentration (50, 100 and 150 units), hyperpolarising and depolarising responses
Description: (§1) Before the experiment, cells were washed with a Krebs-Ringer's solution buffered with HEPES (KRH; in mM: 150 NaCl, 5 KCl, 1.2 MgSO4, 1.2 KH2PO4, 2 CaCl2, 10 glucose, and 10 HEPES, pH 7.4) and incubated with […] di-4-ANEPPS, a fast-VSD (Invitrogen).
(§2) Conductance changes were monitored by measuring the change in fluorescence induced by electric current pulses, quantified as the difference between the mean of plateau values (either positive or negative, depending on the type of stimulus and geometry of the cell) and the mean of pre-stimulation values divided by the mean of pre-stimulation values, ΔF %. As detailed above, normalisation for the values prevailing before stimulation provided a correction for dye bleaching during the experiment, so that fluorescence changes produced by additional stimuli could be compared. […]
(§3) The responsivity to the molecule active on membrane permeability was determined according to two different protocols: • Estimation of conductance with internal control (responses, before and after exposure to the experimental treatment, measured on the same pixels). […]
(§4) Afterward, membrane potential changes evoked by current pulses of fixed intensity were calculated within the same subcellular regions identified by the functional mask after exposure to the experimental treatment. […]

HeLa cells [2] = test: Optical detection of changes in membrane conductance induced by aspecific permeabilization (fast-VSD, electric current pulses, internal control); assay type: cell-based; conditions: measures up to four minutes after administration, conductance normalised to value at t=0
Description: as §1, §2, §3, §4

Substance | Fast-VSD fluorescence variation during unipolar square pulse (HeLa cells [1]) | effect on membrane conductance (HeLa cells [2]; 0.05% volume) | effect on membrane conductance (HeLa cells [2]; 0.5% volume)
streptolysin-O: bacterial protein able to insert into the eukaryotic plasma membrane where it forms a non selective ionic channel | clear reduction in the fluorescence variation |  | 
triton X-100 |  | negligible effect | marked drop

From US9274100B2, “Method for optical measuring variations of cell membrane conductance” (OSPEDALE SAN RAFFAELE S.R.L., priority 2009, dated 2016)
